According to patent US10005815B2, “Biologically cleavable tetrapeptide linking agents” (Arrowhead Madison Inc., priority 2015, dated 2018):

Tested on: liver lysosomal (enzyme) extract
Test: Digestion assay with rat liver lysosomal extract
Assay type: biochemical
Settings: for velocity of digestion, addition of phenylalanine: 54 vs 57, 56 vs 59; for rate and time to completion of digestion, proline at A1 changed to alanine: 33 vs 30, 39 vs 23; for Velocity, Sample / Velocity, Normalized: Table 3; for Velocity, Sample: FCitFP linker with various R5
Protocol: Various amino acid combinations, tetrapeptides, were used to link various first moieties (R^5) and an AENA report group second compound (R^6) to form assay substrates (substrates). Cleavage rate of the peptides were evaluated by analysis of digestion of the substrates in the presence of rat lysosomal extract.
Reporting groups were coupled to the C-terminus of the peptide substrates as described above for UV-vis monitoring to explore the influence of amino acid sequence on kinetics of peptide degradation by HPLC. N-(2-aminoethyl)-4-nitroaniline (AENA) or N-(aminoethyl)-5-napthylamine-1-sulfonic acid (EDANS) were used as reporting groups for HPLC monitoring as neither absorptivity nor lambda maximum were affected for either after cleavage from the peptide. The N-terminus of each peptide substrate was modified with either methoxy polyethylene glycol (PEG12) or N-acetyl galactosamine (NAG(OR)3) (FIG. 1).
Proteolytic digestion experiments were carried out at a fixed substrate concentration (0.51 μmol) using liver lysosomal (enzyme) extract (0.45 μg/μL) in a 25 mM MES solution buffered to pH 5 containing 1% CHAPS and 1.8 mM DTT incubated at 37° C. Enzyme extract was activated in the presence of DTT for 15 minutes at 37° C. prior to addition of AENA labeled peptide substrates. At various time points, up to 26 h, 20 μL aliquots were removed and acidified to a pH of 3 with TFA. Analysis of fractions was performed using HPLC with a Aquasil C18 reverse-phase column (250×4.6, Thermofisher, Waltham, Mass.), monitored at 390 nm and 335 nm for AENA and EDANS respectively. Elution was performed with a gradient of acetonitrile and water buffered with 0.1% formic acid. Generation of unmodified reporter molecule was measured. To minimize freeze thaw cycles the lysosomal extract was dispensed into multiple aliquots prior to storage at −80° C. A new aliquot was employed for each study and used immediately upon thawing. Lysosomal extract was sourced from female Hans Wistar rats by differential density gradient centrifugation (Graham et al. 2000). Protein concentration of lysosomal extract was determined by standard BCA protein assay protocols. […]
Rate (also called velocity of degradation or velocity) was extrapolated during early linear turnover (Table 2). As used herein, rate is defined as the linear rate of reporting group generation at less than 50% completion (digestion rate was assumed to be linear at less than 50% completion). For substrates in which cleavage deviated from consecutive first order kinetics, the percent of reporting group liberated at the endpoint of digestion was used as a metric for comparison.

[1] = Table 4, dipeptide EDANS C-terminal modified substrates
[2] = Table 4, dipeptide EDANS substrates, normalized with compound 60
[3] = AENA substrates, linear rate of reporter generation at <50% completion, pH 5, 37° C.
[4] = AENA substrates, normalized with compound 60 velocity (average 123.8 nmol/h)

Substance	Sample Velocity [1]	Normalized Velocity [2]	Sample Velocity [3]	Normalized Velocity [4]	also measured
H2N-A-PEG4-Glu(EDANS)-NH-(CH2)2-OH [Compound 59]	7.9 nmol/h	7.2 nmol/h	–	–	–
H2N-AP-PEG4-Glu(EDANS)-NH-(CH2)2-OH [Compound 55]	125.7 nmol/h	115.1 nmol/h	–	–	–
H2N-F(Nme)A-Glu(EDANS)-NH-(CH2)2-OH [Compound 51]	177.6 nmol/h	162.6 nmol/h	–	–	–
H2N-FA-PEG4-Glu(EDANS)-NH-(CH2)2-OH [Compound 56]	61.3 nmol/h	56.1 nmol/h	–	–	velocity of digestion, addition of phenylalanine: substantial increase in the velocity of digestion
H2N-FL-PEG4-Glu(EDANS)-NH-(CH2)2-OH [Compound 54]	155.0 nmol/h	132.4 nmol/h	–	–	velocity of digestion, addition of phenylalanine: substantial increase in the velocity of digestion
H2N-FP-PEG4-Glu(EDANS)-NH-(CH2)2-OH [Compound 48]	448.5 nmol/h	383.0 nmol/h	–	–	–
H2N-GP-PEG4-Glu(EDANS)-NH-(CH2)2-OH [Compound 58]	14.4 nmol/h	13.9 nmol/h	–	–	–
H2N-L-PEG4-Glu(EDANS)-NH-(CH2)2-OH [Compound 57]	58.3 nmol/h	53.3 nmol/h	–	–	–
H2N-LP-PEG4-Glu(EDANS)-NH-(CH2)2-OH [Compound 49]	349.1 nmol/h	338.7 nmol/h	–	–	–
H2N-NP-PEG4-Glu(EDANS)-NH-(CH2)2-OH [Compound 52]	156.5 nmol/h	151.9 nmol/h	–	–	–
H2N-SP-PEG4-Glu(EDANS)-NH-(CH2)2-OH [Compound 53]	145.0 nmol/h	140.7 nmol/h	–	–	–
H2N-VP-PEG4-Glu(EDANS)-NH-(CH2)2-OH [Compound 50]	213.5 nmol/h	195.5 nmol/h	–	–	–
NAG(OAc)3-AAA- AENA [Compound 41]	–	–	1.6 nmol/h	1.6 nmol/h	% Released at Endpoint (21 hr): 8.2%
NAG(OAc)3-ACA- AENA [Compound 43]	–	–	–	–	% Released at Endpoint (21 hr): 1.1%
NAG(OAc)3-ACitAA- AENA [Compound 35]	–	–	–	–	% Released at Endpoint (21 hr): 49.8%
NAG(OAc)3-CitAA- AENA [Compound 40]	–	–	3.7 nmol/h	3.9 nmol/h	% Released at Endpoint (21 hr): 15.6%

Substance	Sample Velocity [1]	Normalized Velocity [2]	Sample Velocity [3]	Normalized Velocity [4]	also measured
NAG(OAc)3-CitAAA- AENA [Compound 36]	–	–	–	–	% Released at Endpoint (endpoint at 24 hours): **47.7%
NAG(OAc)3-FCitFA- AENA [Compound 39]	–	–	–	–	rate and time to completion of digestion, proline at A1 changed to alanine: dramatic reduction in rate and time to completion of digestion; % Released at Endpoint (21 hr): 40.5%
NAG(OAc)3-FCitFP-AENA [Compound 22a]	–	–	–	–	rate of proteolytic digestion, influence of R5 (22a vs 23, 22a vs 22b): essentially equivalent in terms of rate of proteolytic digestion; Velocity, Sample: 244.9 nmol/h; Velocity, Normalized (normalized with compound 60): 210.5 nmol/h
NAG(OAc)3-FCitVP- AENA [Compound 26]	–	–	119.5 nmol/h	102.5 nmol/h	% Released at Endpoint (21 hr): 97.8%
NAG(OAc)3-VCitFP- AENA [Compound 28]	–	–	84.3 nmol/h	75.8 nmol/h	% Released at Endpoint (endpoint at 23 hours): *99.4%
NAG(OH)3-FCitAA- AENA [Compound 33]	–	–	–	–	rate and time to completion of digestion, proline at A1 changed to alanine: dramatic reduction in rate and time to completion of digestion; % Released at Endpoint (21 hr): 68.5%
NAG(OH)3-FCitFP-AENA [Compound 22b]	–	–	–	–	Velocity, Sample: 223.7 nmol/h; Velocity, Normalized (normalized with compound 60): 201.0 nmol/h
PEG12-ACitFP- AENA [Compound 31]	–	–	49.5 nmol/h	49.6 nmol/h	% Released at Endpoint (endpoint at 23 hours): *98.9%
PEG12-FCitF(Nme)A- AENA [Compound 29]	–	–	62.5 nmol/h	62.6 nmol/h	rate and completion of digestion, N-methylation at A1 (29 vs 39): faster rate and faster completion of digestion; % Released at Endpoint (endpoint at 23 hours): *97.3%
PEG12-FCitFL- AENA [Compound 27]	–	–	94.5 nmol/h	94.7 nmol/h	% Released at Endpoint (endpoint at 24 hours): **99.7%
PEG12-FDFP- AENA [Compound 34b]	–	–	18.0 nmol/h	16.6 nmol/h	% Released at Endpoint (endpoint at 26 hours): ***66.5%
PEG12-FKFL- AENA [Compound 25b]	–	–	117.0 nmol/h	117.4 nmol/h	% Released at Endpoint (endpoint at 24 hours): **99.8%
PEG12-FKFP- AENA [Compound 24b]	–	–	134.8 nmol/h	123.9 nmol/h	velocity, proline vs leucine at A1 (23 vs 27, 24b vs 25b): small increase in velocity; % Released at Endpoint (endpoint at 26 hours): ***98.9%
PEG12-FNFP- AENA [Compound 32b]	–	–	42.0 nmol/h	38.6 nmol/h	% Released at Endpoint (endpoint at 26 hours): ***99.3%
PEG12-GFLG- AENA [Compound 38]	–	–	10.0 nmol/h	9.7 nmol/h	% Released at Endpoint (endpoint at 24 hours): **47.8%
